Measured values reported in paper PMC9230870, “Investigation of the Uptake and Transport of Two Novel Camptothecin Derivatives in Caco-2 Cell Monolayers” (Molecules, 2022).
Like-named read-outs stand apart in the source and are kept apart here.

What was measured:
HCT 116 = assay: MTT cytotoxicity assay, HCT 116; type: cell-based; settings: HCT 116, MTT, 72 h, mean ± SD (n = 3)
Protocol: (§1) HCT 116, HeLa, A549, Hep G2, and Caco-2 cell lines were obtained from the China Center for Type Culture Collection, CCTCC (Wuhan, China). They were cultured in DMEM, including 10% FBS, 1% penicillin (l00 μg/mL), and 1% streptomycin (l00 μg/mL), in a constant temperature incubator at 37 °C with 5% CO2.
(§2) The cytotoxicity of FL118, FL77-28, and FL77-29 against HCT116, HeLa, A549 HepG2, and Caco-2 cell lines were measured using MTT assays. The cells were plated into 96-well plates at a density of 2 × 10^4 cells/mL and cultured for 24 h. Next, the cells were treated with 0.0125–0.500 μM of FL118, FL77-28, and FL77-29 for 4 h or 72 h. After incubation with 20 µL of 5 mg/mL MTT solution for 4 h, the supernatant was gently discarded and 150 µL of DMSO was added to dissolve the formazan crystals. Finally, the absorbance was measured at 570 nm and the background was subtracted at 630 nm using an ELISA Plate Reader.

Caco-2 cell monolayers = assay: Transport across Caco-2 cell monolayers; type: in vitro ADME; settings: for Papp AP-BL / efflux ratio (ER) = Papp BL-AP/Papp AP-BL: 1.0 μM; for Papp AP-BL: AP FaSSIF pH 6.5, BL HBSS pH 7.4; for efflux ratio (ER) = Papp BL-AP/Papp AP-BL: Caco-2 monolayer
Protocol: When Caco-2 cells reached 80–90% confluence in T-25 flasks, the cells were digested, centrifuged, and resuspended. After seeding at a density of 2 × 10^5 cells/well onto the apical of the Transwell® plate, 0.5 mL of 10% DMEM was added into the apical (AP) chamber and 1.5 mL of 10% DMEM was added into the basolateral (BL) chamber. The buffer was refreshed every two days, and after one week it was refreshed daily and incubated until 21 days.
The integrity of the Caco-2 cell monolayer was evaluated by measuring the transepithelial electrical resistance (TEER) and the permeability of Lucifer yellow (LY). The TEER was measured using Millicell® ERS-2 voltameter (Bedford, USA). The Caco-2 cell model was used for the transport of FL77-28 and FL77-29 when the TEER values exceeded 300 Ω/cm^2. The TEER value was also measured at the end of the transport experiment. In addition, the permeability of LY, a paracellular transport marker, was also measured for the tightness of epithelial cells. […] Then, the fluorescence of samples was measured at excitation/emission wavelengths of 492/520 nm using the ELISA Plate.
Before the transport studies, the Caco-2 cell monolayers were washed twice with warm HBSS containing 15 mM glucose, 10 mM HEPES, and 1% BSA (pH 7.4) and pre-incubated for 30 min at 37 °C [26]. Next, HBSS was discarded and replaced with 0.5/1.0 µM of FL77-28 and FL77-29 dissolved in a different buffer on one side of the cell layer, 0.5 mL for the AP side and 1.5 mL for the BL side. The buffer at the AP was FaSSIF (pH 6.5) and the buffer at the BL was HBSS. Then, the monolayers were incubated at 37 °C. A sample aliquot of 0.5 mL (AP-BL) or 0.25 mL (BL-AP) was taken from the receiving compartment at different time points (120, 150, 180, 210, and 240 min) and then replaced with an equal volume of fresh pre-warmed buffer. The concentrations of FL77-28 and FL77-29 in the sample were determined by HPLC.
(§3) Using the Shimadzu HPLC system (Shimadzu, Kyoto, Japan), the samples taken from the uptake experiment and the transport studies were eluted on a C18 reverse-phase column (250 mm × 4.6 mm, 5 μm, Elite, Dalian). The column was maintained at 40 °C and the absorbance detector wavelength was 365 nm. The mobile phase used for FL118, FL77-28, and FL77-29 consisted of acetonitrile: 0.1% formic acid (40:60, v/v), (60:40, v/v), and (65:35, v/v). The flow rate was 1.0 mL/min, and the injection volume was 20 μL. The retention times of FL118, FL77-28, and FL77-29 were 6.109 min (Figure 1A), 8.456 min (Figure 1B), and 6.351 min (Figure 1C), respectively. Calibration curves were constructed over a concentration range of 0.03–1.00 μM. […] The concentration of FL118, FL77-28, and FL77-29 was determined according to the typical equations.
The concentration of each sample was measured by HPLC. The Papp of FL77-28 and FL77-29 was calculated according to the following equation:Papp (cm/s) = V/(C0·A)·(ΔQ/Δt)(1) where V (cm^3) is the volume of the receiver compartment, A is the monolayer surface area of the Transwell insert (1.12 cm^2), C0 is the initial drug concentration in the donor compartment, and (ΔQ/Δt) is the transport rate.
The efflux ratio (ER) was calculated using the following equation:ER = Papp BL-AP/Papp AP-BL(2)

A549 = assay: MTT cytotoxicity assay, A549; type: cell-based; settings: 72 h, mean ± SD (n = 3)
Protocol: as §1, §2

BCRP [1] = biological target: T1, BCRP (Homo sapiens, UniProt Q9UNQ0); assay: Cellular uptake in Caco-2 cells with BCRP inhibitor Gefitinib; type: in vitro ADME; settings: 1 µM Gefitinib pre-incubation 30 min, 0.2-1.0 μM, 37 °C, 4 h
T1 construct: endogenous in cells; host or cells: Caco-2
T1 sequence (Q9UNQ0 1-655): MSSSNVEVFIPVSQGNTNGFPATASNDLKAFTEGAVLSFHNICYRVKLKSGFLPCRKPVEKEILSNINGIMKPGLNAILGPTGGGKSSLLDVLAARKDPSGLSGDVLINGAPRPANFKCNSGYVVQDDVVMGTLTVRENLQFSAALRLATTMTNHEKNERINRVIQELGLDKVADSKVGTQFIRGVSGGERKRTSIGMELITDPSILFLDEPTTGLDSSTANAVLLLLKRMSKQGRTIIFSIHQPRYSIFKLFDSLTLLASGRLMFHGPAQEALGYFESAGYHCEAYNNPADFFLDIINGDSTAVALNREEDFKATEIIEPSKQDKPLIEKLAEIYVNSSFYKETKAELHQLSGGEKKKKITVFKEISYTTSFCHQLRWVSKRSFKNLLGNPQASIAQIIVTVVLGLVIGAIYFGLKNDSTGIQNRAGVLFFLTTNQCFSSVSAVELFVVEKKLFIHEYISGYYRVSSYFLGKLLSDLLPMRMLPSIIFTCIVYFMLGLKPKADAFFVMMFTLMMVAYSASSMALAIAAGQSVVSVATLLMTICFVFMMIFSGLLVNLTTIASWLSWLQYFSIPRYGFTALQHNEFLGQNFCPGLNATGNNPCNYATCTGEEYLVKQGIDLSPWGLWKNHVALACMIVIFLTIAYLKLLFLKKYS
Protocol: (§4) Caco-2 cells were plated in a 6-well plate at a density of 2 × 10^5 cells/well and cultured at 37 °C. After reaching 80% confluence, Caco-2 cells could be used in the uptake experiments. Next, the cells were washed twice with HBSS and pre-incubated with HBSS or 1 µM Verapamil or Gefitinib for 30 min. After pre-incubation, the drug-free HBSS was replaced by FaSSIF containing FL118, FL77-28, or FL77-29 (0.2, 0.4, 0.6, 0.8, and 1.0 μM), and then incubated for 4 h at 37 °C or 4 °C, respectively. Next, the cells were collected and lysed by freezing and thawing three times. Then, the cells were sonicated and centrifuged at 10,000 rpm for 10 min. Finally, the supernatants were used to measure concentrations of compounds and proteins by HPLC and Bradford methods.
as §3

HeLa = assay: MTT cytotoxicity assay, HeLa; type: cell-based; settings: 72 h, mean ± SD (n = 3)
Protocol: as §1, §2

Caco-2 cells [2] = tested on: Caco-2 cells
Protocol: as §1
as §2, with “Next, the cells were treated with 0.0125–0.500 μM of FL118, FL77-28, and FL77-29 for 4 h or 72 h.” left out

P-gp [3] = biological target: T2, P-gp (Homo sapiens, UniProt P08183); assay: Cellular uptake in Caco-2 cells with P-gp inhibitor Verapamil; type: in vitro ADME; parameters: endogenous in cells; host or cells: Caco-2; settings: 1 µM Verapamil pre-incubation 30 min, 0.2-1.0 μM, 37 °C, 4 h
T2 sequence (P08183 whole entry): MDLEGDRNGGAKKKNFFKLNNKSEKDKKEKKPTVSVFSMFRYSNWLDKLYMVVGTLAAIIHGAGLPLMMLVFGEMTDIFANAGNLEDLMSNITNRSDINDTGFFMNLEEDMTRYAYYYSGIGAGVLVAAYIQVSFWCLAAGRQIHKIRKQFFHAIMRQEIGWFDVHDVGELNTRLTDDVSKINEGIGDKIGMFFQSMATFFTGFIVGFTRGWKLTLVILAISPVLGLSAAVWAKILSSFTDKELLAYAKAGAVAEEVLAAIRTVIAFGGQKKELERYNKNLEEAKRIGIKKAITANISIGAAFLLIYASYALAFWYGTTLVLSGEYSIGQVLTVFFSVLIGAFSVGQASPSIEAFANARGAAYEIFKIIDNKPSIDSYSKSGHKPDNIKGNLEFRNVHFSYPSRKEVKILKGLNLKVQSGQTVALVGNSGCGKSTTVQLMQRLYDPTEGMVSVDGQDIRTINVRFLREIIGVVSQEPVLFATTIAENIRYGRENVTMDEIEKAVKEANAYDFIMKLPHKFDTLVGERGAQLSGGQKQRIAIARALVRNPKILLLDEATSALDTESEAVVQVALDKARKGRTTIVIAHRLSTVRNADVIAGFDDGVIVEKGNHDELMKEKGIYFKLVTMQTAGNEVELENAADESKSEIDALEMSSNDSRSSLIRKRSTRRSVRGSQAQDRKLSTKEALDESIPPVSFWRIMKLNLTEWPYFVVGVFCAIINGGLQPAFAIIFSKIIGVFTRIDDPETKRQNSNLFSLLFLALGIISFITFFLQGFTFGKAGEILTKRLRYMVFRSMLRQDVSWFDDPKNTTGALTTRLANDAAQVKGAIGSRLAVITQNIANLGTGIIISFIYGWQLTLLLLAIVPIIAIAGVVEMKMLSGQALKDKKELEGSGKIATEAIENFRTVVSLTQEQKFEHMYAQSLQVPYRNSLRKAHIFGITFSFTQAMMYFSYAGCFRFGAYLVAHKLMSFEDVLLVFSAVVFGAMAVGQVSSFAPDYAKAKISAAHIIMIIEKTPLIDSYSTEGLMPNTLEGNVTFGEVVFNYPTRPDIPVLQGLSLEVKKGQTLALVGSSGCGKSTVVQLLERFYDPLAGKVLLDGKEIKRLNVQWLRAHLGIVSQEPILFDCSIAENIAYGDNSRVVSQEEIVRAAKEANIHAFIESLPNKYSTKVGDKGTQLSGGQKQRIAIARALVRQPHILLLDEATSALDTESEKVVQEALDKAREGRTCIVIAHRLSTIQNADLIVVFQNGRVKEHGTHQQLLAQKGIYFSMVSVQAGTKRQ
Protocol: as §4, §3

Caco-2 cells [4] = assay: Cellular uptake in Caco-2 cells, effect of temperature; type: in vitro ADME; settings: 4 °C versus 37 °C, 4 h, 0.2-1.0 μM
Protocol: as §4, §3

Hep G2 = assay: MTT cytotoxicity assay, Hep G2; type: cell-based; settings: 72 h, mean ± SD (n = 3)
Protocol: as §1, §2

BCRP [5] = biological target: T1, BCRP; settings: cited from earlier work
P-gp [6] = biological target: T2, P-gp; settings: cited from earlier work
[7] = Caco-2 cells, 0.2 to 1.0 μM, 4 h, MTT

Row | Compound | IC50 (HCT 116) [nM] | Papp AP-BL (Caco-2 cell monolayers; 37 °C) | efflux ratio (ER) = Papp BL-AP/Papp AP-BL (Caco-2 cell monolayers) | IC50 (A549) [nM] | substrate of BCRP (uptake with Gefitinib) (BCRP [1]) | IC50 (HeLa) [nM] | cell viability (Caco-2 cells [2]; [7]) | substrate of P-gp (uptake with Verapamil) (P-gp [3]) | effect of temperature on cellular uptake (Caco-2 cells [4]) | IC50 (Hep G2) [nM] | substrate of BCRP (BCRP [5]) | cell viability (Caco-2 cells [2]) | substrate of P-gp (P-gp [6]) | Papp of LY (monolayer integrity marker) (Caco-2 cell monolayers; 20 µg/mL, 2 h, 37 °C)
1 | CC[C@@]1(O)C(=O)OCc2c1cc1n(c2=O)Cc2c-1nc1cc3c(cc1c2-c1ccc(C)c(F)c1)OCO3 [FL77-28, 7-(3-Fluoro-4-methylphenyl)-10,11-methylenedioxy-20(S)-CPT] | 45 ± 14 | 2.32 ± 0.04 × 10^−6 cm/s | 1.14 | 48 ± 7 | not substrates of P-gp or BCRP | 22 ± 7 | above 90% | not substrates of P-gp | no significant effect | 65 ± 1 | – | – | – | –
2 | CC[C@@]1(O)C(=O)OCc2c1cc1n(c2=O)Cc2c-1nc1cc3c(cc1c2-c1ccc(F)c(C)c1)OCO3 [FL77-29, 7-(4-Fluoro-3-methylphenyl)-10,11-methylenedioxy-20(S)-CPT] | 25 ± 3 | 2.48 ± 0.18 × 10^−6 cm/s | 1.40 | 28 ± 4 | not a substrate for BCRP | 36 ± 4 | above 90% | mediated by P-gp | incubation at 4 °C significantly increased the cellar uptake | 34 ± 2 | – | – | – | –
3 | CC[C@@]1(O)C(=O)OCc2c1cc1n(c2=O)Cc2cc3cc4c(cc3nc2-1)OCO4 [FL118, 10,11-methylenedioxy-20(S)-CPT, reference compound] | 50 ± 4 | – | – | 43 ± 4 | not substrates of P-gp or BCRP | 40 ± 3 | – | not substrates of P-gp | no significant effect | 104 ± 2 | not being a substrate for P-gp or BCRP | above 90% | not being a substrate for P-gp | –
4 | Lucifer yellow [LY, reference compound] | – | – | – | – | – | – | – | – | – | – | – | – | – | 0.57 ± 0.14 × 10^−6 cm/s
